Series [1] relates to Laodelphax striatellus. Briefly: Insecticidal activity against larvae of Laodelphax striatella (small brown planthopper) fed with compound solution dipped rice seedling measured after 5 days by test tube method. It is filed as functional. The note with it: 120 h.
The nature of series [2]: Displacement of [3H]alpha-bungarotoxin from nicotinic acetylcholine receptor in Apis mellifera (honey bee) head membrane.
Series [3] deals with Laodelphax striatellus. As to the kind of experiment: Insecticidal activity against adult Laodelphax striatella (small brown planthopper) at 0.0005 ug topically applied measured after 24 hr. It is filed as functional.
The next series relates to Myzus persicae. As to the kind of experiment: Insecticidal activity against larvae of Myzus persicae (green peach aphid) infested eggplant petiole treated with compound solution measured after 5 days. It is filed as functional. To be noted: 120 h.
The test system of series [4] is Laodelphax striatellus. Briefly: Insecticidal activity against adult Laodelphax striatella (small brown planthopper) at 0.0005 ug topically applied measured after 3 hr. It is filed as functional.
Series [5] in a line: Acute toxicity in po dosed Mus musculus ICR (mouse) assessed as mortality measured after 14 days. The series is classed as organism-based. To be noted: in vivo.
In series [6] the test system is Laodelphax striatellus. As to the kind of experiment: Insecticidal activity against Laodelphax striatella (small brown planthopper) at 12.5 ppm in presence of diethyl maleate. The series is classed as functional.
Series [7] has as its system Laodelphax striatellus. As to the kind of experiment: Insecticidal activity against Laodelphax striatella (small brown planthopper) at 12.5 ppm in presence of triphenyl phosphate. It is filed as functional.
In series [8] the test system is Laodelphax striatellus. As to the kind of experiment: Insecticidal activity against Laodelphax striatella (small brown planthopper) at 3.1 ppm. The series is classed as functional.
Series [9] concerns Laodelphax striatellus. Briefly: Insecticidal activity against Laodelphax striatella (small brown planthopper) at 0.0005 ug topically applied measured after 48 hr. The series is classed as functional.
Series [10] has as its system Laodelphax striatellus. As to the kind of experiment: Insecticidal activity against Laodelphax striatella (small brown planthopper) at 0.0005 ug topically applied measured after 72 hr. It is filed as functional.
Series [11] deals with Laodelphax striatellus. As to the kind of experiment: Insecticidal activity against Laodelphax striatella (small brown planthopper) at 3.1 ppm in presence of triphenyl phosphate. The series is classed as functional.
Series [12] has as its system Laodelphax striatellus. As to the kind of experiment: Insecticidal activity against Laodelphax striatella (small brown planthopper) at 12.5 ppm. The series is classed as functional.
Series [13] relates to Laodelphax striatellus. Briefly: Insecticidal activity against Laodelphax striatella (small brown planthopper) at 3.1 ppm in presence of piperonyl butoxide. The series is classed as functional.
Series [14] relates to Laodelphax striatellus. As to the kind of experiment: Insecticidal activity against Laodelphax striatella (small brown planthopper) at 12.5 ppm in presence of piperonyl butoxide. It is filed as functional.
In series [15] the test system is Laodelphax striatellus. Briefly: Insecticidal activity against Laodelphax striatella (small brown planthopper) at 3.1 ppm in presence of diethyl maleate. It is filed as functional.

SMILES strings stand for the structures. ≈ marks a conversion by molar mass, not a printed value.

The LC50 is the concentration lethal to half of the exposed cells or organisms. Broadly, the IC50 is the concentration that inhibits the measured activity by half. Usually mortality stands for the share of the test organisms that died. As usually defined, the LD50 is the dose expected to kill half of the subjects tested. With `O=[N+]([O-])/C=C1\NCCN1Cc1ccc(Cl)nc1`, the LC50 in the series on Laodelphax striatellus [1] was determined as 0.3 µg/mL (≈ 1.18 µM); in the series with Myzus persicae it was 0.09 µg/mL (≈ 0.353 µM). In series [2], this molecule registered an IC50 of 0.11 µM. Also, the mortality turned out to be 100% in the series with Laodelphax striatellus [3] and 70% in the series with Laodelphax striatellus [4]. The LD50 at 336 h in [5] is under 30 mg/kg.

For `C[Si](C)(CSC/C(=C1/NCCN1Cc1ccc(Cl)nc1)[N+](=O)[O-])c1ccccc1`, the LC50 with Laodelphax striatellus [1] amounted to 0.1 µg/mL (≈ 0.223 µM); in the series on Myzus persicae, 0.25 µg/mL (≈ 0.557 µM).

Consider `O=C(SC/C(=C1/NCCN1Cc1ccc(Cl)nc1)[N+](=O)[O-])c1ccccc1`, for which the LC50 with Laodelphax striatellus [1] turned out to be 6.3 µg/mL (≈ 15.6 µM); with Myzus persicae it was 1.2 µg/mL (≈ 2.96 µM).

For the molecule `CC(SC/C(=C1/NCCN1Cc1ccc(Cl)nc1)[N+](=O)[O-])c1ccc(Cl)cc1` (stereo not drawn), the LC50 in the series with Laodelphax striatellus [1] turned out to be 1 µg/mL (≈ 2.28 µM); in the series on Myzus persicae, 0.2 µg/mL (≈ 0.455 µM).

With `O=[N+]([O-])/C(CSCc1ccc(Cl)cc1)=C1\NCCN1Cc1ccc(Cl)nc1`, the results for the LC50 with Laodelphax striatellus [1] and with Myzus persicae were 0.14 µg/mL (≈ 0.329 µM) and 0.8 µg/mL (≈ 1.88 µM), respectively.

As for `O=[N+]([O-])/C(CSCc1ccccc1)=C1\NCCN1Cc1ccc(Cl)nc1`, the LC50 is 0.36 µg/mL (≈ 0.921 µM) with Laodelphax striatellus [1] and 0.11 µg/mL (≈ 0.281 µM) in the series with Myzus persicae.

As to `CCOC(=O)CSC/C(=C1/NCCN1Cc1ccc(Cl)nc1)[N+](=O)[O-]`, the figures for the LC50 with Laodelphax striatellus [1] and in the series on Myzus persicae were 0.3 µg/mL (≈ 0.775 µM) and 0.1 µg/mL (≈ 0.258 µM), respectively.

Consider `O=[N+]([O-])/C(CSc1ccccc1)=C1\NCCN1Cc1ccc(Cl)nc1`, for which the LC50 in the series with Laodelphax striatellus [1] turned out to be 0.11 µg/mL (≈ 0.292 µM); with Myzus persicae it was 0.34 µg/mL (≈ 0.902 µM).

As to `O=[N+]([O-])/C(CSCCCF)=C1\NCCN1Cc1ccc(Cl)nc1`, the results for the LC50 with Laodelphax striatellus [1] and with Myzus persicae were 0.14 µg/mL (≈ 0.388 µM) and 0.2 µg/mL (≈ 0.554 µM), respectively.

For the molecule `CC#CCSC/C(=C1/NCCN1Cc1ccc(Cl)nc1)[N+](=O)[O-]`, the LC50 in the series on Laodelphax striatellus [1] came out at 0.3 µg/mL (≈ 0.85 µM); with Myzus persicae it was 0.25 µg/mL (≈ 0.709 µM).

In the case of `C=C(C)CSC/C(=C1/NCCN1Cc1ccc(Cl)nc1)[N+](=O)[O-]`, the LC50 was under 0.05 µg/mL in the series with Laodelphax striatellus [1] and 0.15 µg/mL (≈ 0.423 µM) in the series with Myzus persicae.

In the case of `C#CCSC/C(=C1/NCCN1Cc1ccc(Cl)nc1)[N+](=O)[O-]`, the LC50 in the series with Laodelphax striatellus [1] was under 0.05 µg/mL; with Myzus persicae it was 0.22 µg/mL (≈ 0.649 µM).

Consider `C=CCSC/C(=C1/NCCN1Cc1ccc(Cl)nc1)[N+](=O)[O-]`, for which the mortality at 12.5 ppm was determined as 80% in the series with Laodelphax striatellus [6], 100% in the series with Laodelphax striatellus [7], 100% with Laodelphax striatellus [12] and 100% with Laodelphax striatellus [14]. Besides, the LC50 is 0.14 µg/mL (≈ 0.411 µM) with Laodelphax striatellus [1] and 0.1 µg/mL (≈ 0.293 µM) in the series on Myzus persicae. For the same molecule, the mortality at 3.1 ppm in the series on Laodelphax striatellus [8] was 100%; with Laodelphax striatellus [11], 100%; with Laodelphax striatellus [13], 100%; in the series with Laodelphax striatellus [15] it was 30%. The mortality with Laodelphax striatellus [9] turned out to be 80%; in the series on Laodelphax striatellus [10], 100%; with Laodelphax striatellus [3], 30%; in the series on Laodelphax striatellus [4], 0%. In [2], this molecule returned an IC50 of 20.4 µM. In addition, the LD50 at 336 h in series [5] is over 1000 mg/kg.

As to `CC(C)(C)SC/C(=C1/NCCN1Cc1ccc(Cl)nc1)[N+](=O)[O-]`, the LC50 with Laodelphax striatellus [1] worked out at 0.43 µg/mL (≈ 1.2 µM); in the series on Myzus persicae, 0.2 µg/mL (≈ 0.56 µM).

With `CCSC/C(=C1/NCCN1Cc1ccc(Cl)nc1)[N+](=O)[O-]`, the figures for the LC50 in the series with Laodelphax striatellus [1] and with Myzus persicae were 0.41 µg/mL (≈ 1.25 µM) and 0.18 µg/mL (≈ 0.547 µM), respectively.

(Values after ChEMBL document CHEMBL3045198, “Insecticidal Activity and Selective Toxicity of Chloronicotinyl Compounds Having Thiomethyl Groups” (J Pestic Sci, 2000).)
